Like-named read-outs stand apart in the source and are kept apart here.
Legend:
Assay type in all cases: cell-based
[1] = tested on: NCI-H358 cells; assay: NCI-H358 CTG proliferation assay (120 h) (NSCLC, G12C); details: Homo sapiens
Procedure, shortened: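 NCI-H358 cells (KRAS G12C) were seeded at 2000/well (assay 1) or 200/well (assay 2) in RPMI-1640 + 10% FCS and dosed with a logarithmic series, DMSO-normalized. After 120 h, viability was read by CellTiter-Glo luminescence as percent of DMSO control, with a T0 read at dosing. IC50 came from a four-parameter fit.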

[2] = tested on: LOVO cells; assay: LOVO CTG proliferation assay (120 h) (CRC, G13D); details: Homo sapiens
Description: LOVO CTG Proliferation Assay (120 h) (CRC, G13D)
LOVO cells (ATCC CCL-229) are dispensed into 384-well plates, flat and clear bottom (Greiner, PNr. 781091) at a density of 1000 cells per well in 60 μL DMEM (Sigma D6429)+10% Fetal Calf Serum (HyClone, PNr.: SH30084.03) and incubated at 37° C. in a CO2 incubator overnight. The next day, compounds (10 mM stock in DMSO) are added with the ECHO acoustic liquid handler system (Beckman Coulter), including DMSO controls. Plates are incubated for 120 h, and cell viability is measured using CellTiter-Glo luminescent cell viability reagent (Promega product code G7570). Viability (stated as percent of control) is defined as relative luminescence units RLU of each well divided by the RLU of cells in DMSO controls. IC50 values are determined from viability measurements by non-linear regression using a four-parameter model.

[3] = molecular target: T1, KRAS(G12D) (Homo sapiens, UniProt P01116, G12D); assay: HiBit degradation assay in GP5d-HiBit-KRAS(G12D) cells (18 h; DC50, Dmax)
T1 construct: introduced immediately downstream of the initiating Methionine codon of the endogenous KRAS locus; host or cells: GP5d-HiBit-KRAS(G12D), a CRISPR knock-in at the endogenous locus
T1 sequence (P01116 1-188 isoform P01116-2 G12D): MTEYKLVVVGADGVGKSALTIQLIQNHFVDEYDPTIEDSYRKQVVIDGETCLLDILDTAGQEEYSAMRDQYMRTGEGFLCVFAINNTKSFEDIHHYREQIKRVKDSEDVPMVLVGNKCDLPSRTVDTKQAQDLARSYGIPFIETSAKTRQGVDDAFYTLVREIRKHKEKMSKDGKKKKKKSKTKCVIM
Procedure, shortened: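 GP5d cells carry an endogenous N-terminal HiBit tag on KRAS(G12D), knocked in by CRISPR. They were seeded overnight in DMEM/10% FCS, exposed to compound for 18 h at 37° C, then lysed for HiBit luminescence, normalised to DMSO. DC50 comes from a four-parameter logistic fit; Dmax is maximal degradation as % of control.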

[4] = tested on: AsPC-1 cells; assay: AsPC-1 CTG proliferation assay (120 h) (pancreatic cancer, G12D); details: Homo sapiens, ASPC1, AsPC-1 proliferation
Description: AsPC-1 CTG Proliferation Assay (120 h) (Pancreatic Cancer, G12D)
The CTG assay is designed to measure quantitatively the proliferation of AsPC-1 cells (ATCC […]), using the CellTiter Glow Assay Kit (Promega G7571). Cells are grown in RPMI medium (ATCC) supplemented with Fetal Calf Serum (Life Technologies, Gibco BRL, Cat. No. 10270-106). On “day 0” 2000 AsPC-1 cells are seeded in 60 μL RPMI ATCC+10% FCS+ Penstrep in a 384-well plate, flat and clear bottom (Greiner, PNr. 781091). Cells are then incubated in the plates at 37° C. in a CO2 incubator overnight. On day 1, compounds (10 mM stock in DMSO) are added with the ECHO acoustic liquid handler system (Beckman Coulter), including DMSO controls. Plates are incubated for 120 h, and cell viability is measured using CellTiter-Glo luminescent cell viability reagent (Promega product code G7570). Viability (stated as percent of control) is defined as relative luminescence units RLU of each well divided by the RLU of cells in DMSO controls. IC50 values are determined from viability measurements by non-linear regression using a four-parameter model.

[5] = tested on: SW620 cells; assay: SW620 cell proliferation assay (colorectal cancer, G12V), 5 days; details: Homo sapiens, SW-620, 120 h
Procedure, shortened: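 SW620 cells (2000/well, DMEM with 10% FCS) exposed to a logarithmic compound dilution series for 5 days. Viability by CellTiter-Glo luminescence as percent of DMSO control; IC50 from a four-parameter logistic fit.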

[6] = assay 1, read-out: H358 (assay 1) IC50
[7] = assay 2, read-out: H358 (assay 2) IC50

SMILES | IC50 [1, 6] | IC50 [1, 7] | IC50 [2] | DC50 [3] | Dmax 18 h [3] | IC50 [4] | IC50 [5]
Cc1ncsc1-c1ccc(CNC(=O)[C@@H]2C[C@@H](O)CN2C(=O)[C@H](c2cc(OCCCN3CCCN(c4nccc(-c5noc([C@@]6(C)CCCc7sc(N)c(C#N)c76)n5)n4)[C@@H](C)C3)no2)C(C)C)cc1 (single isomer, unassigned) [I-24] | 1070 nM | 1440 nM | 1950 nM | 200 nM | 81 % Ctrl | 1800 nM | 802 nM
Cc1ncsc1-c1ccc(CNC(=O)[C@@H]2C[C@@H](O)CN2C(=O)[C@@H](c2cc(OCCCN3CCCN(c4nccc(-c5noc([C@@]6(C)CCCc7sc(N)c(C#N)c76)n5)n4)[C@@H](C)C3)no2)C(C)C)cc1 (single isomer, unassigned) [I-25] | 45.6 nM | 63.9 nM | 53.5 nM | 2.3 nM | 94 % Ctrl | 93.4 nM | 9.88 nM
Cc1ncsc1-c1ccc(CNC(=O)[C@@H]2C[C@@H](O)CN2C(=O)[C@@H](c2cc(OCCCCN3CCCN(c4nccc(-c5noc([C@@]6(C)CCCc7sc(N)c(C#N)c76)n5)n4)[C@@H](C)C3)no2)C(C)C)cc1 (single isomer, unassigned) [I-27] | 60.5 nM | 35.2 nM | 40.9 nM | 2.9 nM | 93 % Ctrl | 144 nM | 14.9 nM
Cc1ncsc1-c1ccc([C@@H](NC(=O)[C@@H]2C[C@@H](O)CN2C(=O)[C@H](C(C)C)n2cc(OCCCCN3CCCN(c4nccc(-c5noc([C@@]6(C)CCCc7sc(N)c(C#N)c76)n5)n4)[C@@H](C)C3)nn2)[C@H](C)O)cc1 (single isomer, unassigned) [I-41] | 59.6 nM | 14.9 nM | 29.3 nM | 1.6 nM | 94 % Ctrl | 42 nM | 10.5 nM
Cc1ncsc1-c1ccc([C@@H](NC(=O)[C@@H]2C[C@@H](O)CN2C(=O)[C@H](C(C)C)n2cc(OCCCN3CCCN(c4nccc(-c5noc([C@@]6(C)CCCc7sc(N)c(C#N)c76)n5)n4)[C@@H](C)C3)nn2)[C@H](O)C(C)C)cc1 (single isomer, unassigned) [I-43] | 50.8 nM | 8.1 nM | 22.2 nM | 1.2 nM | 93 % Ctrl | 52.1 nM | 9.4 nM
Cc1ncsc1-c1ccc([C@@H](NC(=O)[C@@H]2C[C@@H](O)CN2C(=O)[C@H](C(C)C)n2cc(OCCCCN3CCCN(c4nccc(-c5noc([C@@]6(C)CCCc7sc(N)c(C#N)c76)n5)n4)[C@@H](C)C3)nn2)[C@H](O)C(C)C)cc1 (single isomer, unassigned) [I-45] | 98.6 nM | 13.4 nM | 43 nM | 1.4 nM | 93 % Ctrl | 51.4 nM | 14.5 nM
Cc1ncsc1-c1ccc(CNC(=O)[C@@H]2C[C@@H](O)CN2C(=O)C(c2cc(OCCCCN3CCCN(c4nccc(-c5cc([C@@]6(C)CCCc7sc(N)c(C#N)c76)on5)n4)[C@@H](C)C3)no2)C(C)C)cc1 (stereo partly drawn) [I-4] | 445 nM | 196 nM | 425 nM | 4.3 nM | 94 % Ctrl | 372 nM | 53.4 nM
CC(C)C(C(=O)N1C[C@H](O)C[C@H]1C(=O)NCc1ccc(C#N)cc1)c1cc(OCCCCN2CCCN(c3nccc(-c4noc([C@@]5(C)CCCc6sc(N)c(C#N)c65)n4)n3)[C@@H](C)C2)no1 (stereo partly drawn) [I-16] | 231 nM | 85.5 nM | 1820 nM | 3.9 nM | 91 % Ctrl | 169 nM | 37.1 nM
Cc1ncsc1-c1ccc([C@H](C)NC(=O)[C@@H]2C[C@@H](O)CN2C(=O)C(C(C)C)n2cc(OCCCCN3CCCN(c4nccc(-c5noc([C@@]6(C)CCCc7sc(N)c(C#N)c76)n5)n4)[C@@H](C)C3)nn2)cc1 (stereo partly drawn) [I-28] | 32 nM | 81.4 nM | 649 nM | 1.5 nM | 93 % Ctrl | 72 nM | 13.2 nM
Cc1ncsc1-c1ccc([C@H](CO)NC(=O)[C@@H]2C[C@@H](O)CN2C(=O)[C@H](C(C)C)n2cc(OCCCCN3CCCN(c4nccc(-c5noc([C@@]6(C)CCCc7sc(N)c(C#N)c76)n5)n4)[C@@H](C)C3)nn2)cc1 [I-29] | 28.8 nM | – | 44 nM | 2 nM | 93 % Ctrl | 97.2 nM | 26.4 nM
Cc1ncsc1-c1ccc([C@H](CO)NC(=O)[C@@H]2C[C@@H](O)CN2C(=O)[C@H](C(C)C)n2cc(OCCCC(C)N3CCCN(c4nccc(-c5noc([C@@]6(C)CCCc7sc(N)c(C#N)c76)n5)n4)[C@@H](C)C3)nn2)cc1 (stereo partly drawn) [I-30] | 29.3 nM | – | 86.4 nM | 1.4 nM | 94 % Ctrl | 69 nM | 18 nM
Cc1ncsc1-c1ccc([C@H](CO)NC(=O)[C@@H]2C[C@@H](O)CN2C(=O)[C@H](C(C)C)n2cc(OC(C)CCCN3CCCN(c4nccc(-c5noc([C@@]6(C)CCCc7sc(N)c(C#N)c76)n5)n4)[C@@H](C)C3)nn2)cc1 (stereo partly drawn) [I-31] | 159 nM | – | 344 nM | 4.4 nM | 93 % Ctrl | 183 nM | 62.1 nM
Cc1ncsc1-c1ccc([C@H](CCO)NC(=O)[C@@H]2C[C@@H](O)CN2C(=O)[C@H](C(C)C)n2cc(OCCCCN3CCCN(c4nccc(-c5noc([C@@]6(C)CCCc7sc(N)c(C#N)c76)n5)n4)[C@@H](C)C3)nn2)cc1 [I-38] | 98.8 nM | – | 597 nM | 3.3 nM | 93 % Ctrl | 128 nM | 28.4 nM

Reference: patent US20250145608A1, “KRAS DEGRADING COMPOUNDS COMPRISING ANNULATED 2-AMINO-3-CYANO THIOPHENES” (Boehringer Ingelheim Int'l GmbH Corp., priority 2021, published 2025)
